The values below come from ChEMBL document CHEMBL1201862, “PubChem BioAssay data set” (2004).

As usually defined, the GI50 is the concentration giving 50% growth inhibition.

Holding throughout (experiment): DTP human tumour cell line panel, 48 h
The test system of assay [1] is TK-10.
Assay [2] concerns U-251.
Assay [3] relates to HL-60.
The test system of assay [4] is HCT-116.
Assay [5] relates to SNB-19.
Assay [6] deals with EKVX.
For assay [7], the system named is RPMI-8226.
Assay [8] deals with SNB-75.
Assay [9] has as its system MOLT-4.
For assay [10], the system named is SF-295.
Assay [11] has as its system UO-31.
Assay [12] relates to 786-0.
For assay [13], the system named is SN12C.
In assay [14] the test system is NCI-H23.
Assay [15] has as its system NCI/ADR-RES.
The subject of assay [16] is SK-OV-3.
Assay [17] relates to RXF 393.
Assay [18] concerns HCC 2998.
Assay [19] relates to OVCAR-8.
Assay [20] relates to A498.

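1) Cells in 96-well plates. 2) Compound, 48 h, 5 concentrations. 3) Linear interpolation between surrounding doses. 4) Unreached endpoint = highest concentration. Here, GI50 denotes the concentration required for 50% inhibition of growth.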 Activity calls are given as the source filed them. No stated cut-off is given here; in the data, active = GI50 up to about 1.1 µM and inactive = higher.

On to `CN(COC(=O)c1ccccc1)c1nc(N(C)COC(=O)c2ccccc2)nc(N(C)COC(=O)c2ccccc2)n1`, for which the GI50 is 20.3 µM (inactive) in assay [1]; 20.2 µM (inactive) in assay [2]; > 100 µM (inactive) in assay [3]; 44.5 µM (inactive) in [4]; 16.5 µM (inactive) in [5]; > 83.6 µM (inactive) in assay [6]. In addition, the GI50 was > 100 µM (inactive) in [7]; > 94.6 µM (inactive) in assay [8]; > 100 µM (inactive) in [9]; 23.9 µM (inactive) in [10]; > 83.9 µM (inactive) in assay [11]; 11.4 µM (inactive) in assay [12]. In addition, the GI50 is > 100 µM (inactive) in assay [13]; 41.5 µM (inactive) in [14]; 50.1 µM (inactive) in assay [15]; > 65.2 µM (inactive) in assay [16]; 7.83 µM (inactive) in assay [17]; > 100 µM (inactive) in assay [18]. For the same molecule, the GI50 in assay [19] was 39.4 µM (inactive).
In the case of `COc1cc2c(c(OC)c1OC)C(=O)[C@H](O)[C@H]2NC(N)=O`, the GI50 in [1] is > 100 µM (inactive); in [2], 44.2 µM (inactive); in assay [3], 90.8 µM (inactive); in assay [4], 79.4 µM (inactive); in assay [5], > 100 µM (inactive); in assay [6], 99.5 µM (inactive). In addition, the GI50 in [7] was > 100 µM (inactive); in assay [8], 23.3 µM (inactive); in [9], 95.9 µM (inactive); in assay [10] it was > 100 µM (inactive); in [11], > 100 µM (inactive); in assay [12], > 100 µM (inactive). The GI50 in [13] was > 100 µM (inactive); in [14] it was 53.8 µM (inactive); in [15], > 100 µM (inactive); in assay [17], 47.8 µM (inactive); in assay [18], > 100 µM (inactive); in assay [19], > 100 µM (inactive).
For the molecule `O=C1OCCC[C@H]2O[C@@H](COCc3ccccc3)C[C@@H]12`, the GI50 in assay [1], in [2], in assay [3], in [4], in [5] and in [7] was > 100 µM (inactive) in each case. For the same molecule, the GI50 in assay [8], in [20], in assay [9], in assay [10], in assay [11] and in assay [12] was > 100 µM (inactive) in each case. For the same molecule, the GI50 in [13], in assay [14], in assay [15], in [16] and in [19] was > 100 µM (inactive) each time.
`NCCC(N)C(=O)O` (stereo not given): the GI50 in [1], in assay [2], in assay [3], in [4], in assay [5] and in assay [6] was > 100 µM (inactive) throughout. The GI50 in assay [7], in assay [20], in assay [9], in [10], in [11] and in [12] was > 100 µM (inactive) each time. For the same molecule, the GI50 in assay [13], in [14], in assay [15], in assay [16], in assay [17] and in assay [19] was > 100 µM (inactive) each time.
`CNC(=S)NNc1ncnc2c1c(-c1ccc(Cl)cc1)cn2-c1ccc(C)cc1`: the GI50 in assay [1] is 18.8 µM (inactive); in [2], 11.1 µM (inactive); in [3], 2.81 µM (inactive); in assay [4], 4.57 µM (inactive); in assay [5], 17.6 µM (inactive); in [6] it was 13.8 µM (inactive). Also, the GI50 is 3.13 µM (inactive) in [7]; 20.8 µM (inactive) in assay [20]; 3.85 µM (inactive) in assay [9]; 6.05 µM (inactive) in assay [10]; 10.9 µM (inactive) in assay [11]; 9.18 µM (inactive) in assay [12]. For the same molecule, the GI50 in assay [13] is 11.1 µM (inactive); in assay [14], 13.2 µM (inactive); in assay [15] it was 11.6 µM (inactive); in assay [16], 15 µM (inactive); in assay [17] it was 16.4 µM (inactive); in assay [19], 9.48 µM (inactive).
As for `CC(C)=Nn1cnc(C(=N)C#N)c1N`, the GI50 in [1], in assay [2], in assay [3], in assay [4], in [5] and in [6] was > 100 µM (inactive) each time. Moreover, the GI50 in assay [7] was > 100 µM (inactive); in assay [8], 37.1 µM (inactive); in assay [9], > 100 µM (inactive); in assay [10], 29.4 µM (inactive); in assay [11] it was > 100 µM (inactive); in assay [12] it was > 100 µM (inactive). The GI50 in assay [14], in assay [15], in [16], in [17], in assay [18] and in assay [19] was > 100 µM (inactive) each time.
In the case of `Cc1sc(NC=C2C(=O)CC(C)(C)CC2=O)nc1-c1ccccc1`, the GI50 in assay [1] was > 100 µM (inactive); in assay [2] it was > 100 µM (inactive); in [3], 2.17 µM (inactive); in assay [4], > 100 µM (inactive); in assay [5], > 100 µM (inactive); in assay [6] it was > 100 µM (inactive). For the same molecule, the GI50 in assay [7], in assay [8], in assay [9], in [10], in [11] and in assay [12] was > 100 µM (inactive) each time. In addition, the GI50 in [13], in assay [14], in assay [15], in [16], in assay [17] and in [18] was > 100 µM (inactive) in each case. Further, in assay [19], the GI50 was > 100 µM (inactive).
In the case of `Cc1cc(=O)oc2c(CNC(Cc3ccccc3)C(=O)O)c(O)ccc12` (stereo not given), the GI50 in assay [1], in assay [2], in [3], in assay [4], in assay [5] and in assay [6] was > 100 µM (inactive) throughout. Besides, the GI50 was > 100 µM (inactive) in [7]; 82.2 µM (inactive) in assay [8]; > 100 µM (inactive) in assay [9]; > 100 µM (inactive) in assay [10]; 73.3 µM (inactive) in assay [11]; > 100 µM (inactive) in [12]. The GI50 in assay [13], in [14], in assay [15], in [16], in assay [17] and in assay [18] was > 100 µM (inactive) in each case. For the same molecule, the GI50 in assay [19] was > 100 µM (inactive).
With `COC(=O)CCC(C)C1CCC2C3C(C[C@H](OC(C)=O)[C@]12C)[C@@]1(C)CCC2(C[C@H]1C[C@H]3OC(C)=O)OOC1(CC[C@]3(C)C4C[C@H](OC(C)=O)[C@]5(C)C(C(C)CCC(=O)OC)CCC5C4[C@H](OC(C)=O)C[C@@H]3C1)OO2` (stereo not given in full), the GI50 in assay [1] is > 100 µM (inactive); in [2], 45.1 µM (inactive); in [3], 38.3 µM (inactive); in assay [4], > 100 µM (inactive); in assay [5], > 100 µM (inactive); in [6] it was > 100 µM (inactive). In addition, the GI50 in assay [7] is > 100 µM (inactive); in assay [8], 68.4 µM (inactive); in assay [9] it was 48.4 µM (inactive); in assay [10], 78.7 µM (inactive); in [11], 30.9 µM (inactive); in [12], > 100 µM (inactive). The GI50 in [13] is 83.2 µM (inactive); in [14], 84.7 µM (inactive); in [15], > 100 µM (inactive); in assay [16] it was > 100 µM (inactive); in assay [17], > 100 µM (inactive); in assay [18], > 100 µM (inactive). Moreover, the GI50 in [19] was > 100 µM (inactive).
Take `CSC(=S)NN=C1CCCCC1`: the GI50 is 24.9 µM (inactive) in assay [1]; 29.1 µM (inactive) in assay [2]; 27.2 µM (inactive) in assay [4]; 96.6 µM (inactive) in [5]; 22.8 µM (inactive) in assay [6]; 0.165 µM (active) in assay [7]. The GI50 is 50.6 µM (inactive) in assay [8]; > 100 µM (inactive) in assay [20]; 15.7 µM (inactive) in assay [9]; 28.4 µM (inactive) in assay [10]; > 100 µM (inactive) in assay [11]; 37.3 µM (inactive) in assay [12]. For the same molecule, the GI50 in assay [13] was 24.4 µM (inactive); in assay [14], 29.9 µM (inactive); in assay [15], 24.7 µM (inactive); in assay [16] it was > 100 µM (inactive); in assay [17], > 100 µM (inactive); in assay [19] it was 8.93 µM (inactive).
Regarding `CCOC(=O)C1=C(C)NC(=O)NC1c1ccc(N(CCCl)CCCl)cc1Cl` (stereo not given), the GI50 in [1] was 18.3 µM (inactive); in assay [2] it was 16.6 µM (inactive); in [3], 1.73 µM (inactive); in [4] it was 14.3 µM (inactive); in assay [5], 17.3 µM (inactive); in assay [6] it was 22.5 µM (inactive). The GI50 is 14.9 µM (inactive) in assay [8]; 15.9 µM (inactive) in assay [20]; 15.8 µM (inactive) in [10]; 14.3 µM (inactive) in assay [11]; 15.8 µM (inactive) in assay [12]; 16.3 µM (inactive) in assay [13]. Besides, the GI50 is 18.7 µM (inactive) in assay [14]; 16.7 µM (inactive) in assay [15]; 17.3 µM (inactive) in [16]; 17.1 µM (inactive) in assay [17]; 12.9 µM (inactive) in assay [19].
